For series [1], the system named is 5 kinds of human solid cancer cell lines. The experiment in a line: In vitro antitumor activity against 5 human solid cancer cell lines compared with cisplatin (SRB assay). The format is cell-based. The settings on record: in words. On the procedure: Antitumor activities of the compounds of present invention were tested. Antitumor activities of compounds of the present invention were tested in vitro against 5 kinds of human tumor cell lines and 2 kinds of leukemia tumor cell lines. The method of in vitro test is as follows.
B. Method of test(SRB Assay Method)
a. Human solid tumor cell lines, […](non-small lung cell), SKMEL-2(melanoma), HCT-15(colon), SKOV-3(ovarian), XF-498(CNS) were cultured at 37° C., in 5% CO2 incubater using the RPMI 1640 media containing 10% FBS, while they were transfer-cultured successively once or twice per week. Cell cultures were dissolved into the solution of 0.25% trypsin and 3 mM CDTA PBS(-) and then cells were separated from media which the cells were sticked on.
b. 5×10^3 -2×10^4 cells were added into each well of 96-well plate and cultured in 5% CO2 incubater, at 37° C., for 24 hours.
c. Each sample drugs was dissolved in a small quantity of DMSO, and diluted to concentrations prescribed in experiment with media, and then the final concentration of DMSO was controlled below 0.5%.
d. A medium of each well cultured for 24 hours as above b., was removed by aspiration. 200 μl of drug samples prepared in c. was added into each well and the wells were cultured for 48 hours. Tz(time zero) plates were collected at the point of time drugs were added.
e. After Tz plates and plates were treated with cell fixing by TCA of SRB assay method, staining of 0.4% SRB solution, washing with 1% acetic acid, OD values were measured at 520 nm, following elution of dye with 10 mM Tris solution.
e. If T≥Tz, cellular response function was calculated with 100×(T-Tz)/(C-Tz), and if T<Tz, with 100×(T-Tz)/Tz.

The subject of series [2] is P388 (mouse lymphoid neoplasma cell). As to the kind of experiment: In vitro antitumor effects against animal leukemia cells (dye exclusion assay), P388. The series is classed as cell-based. The settings on record: 50% cell growth inhibition, 37° C., trypan blue; for ED50: 48 hours, 2880 min; for IC50: Mus musculus, P388, 48 h, read-out: ED50 (the source's name). As for the experimental part: P388 (mouse lymphoid neoplasma cell)
(§1) B. Method of Experiment(Dye Exclusion Assay)
(§2) 2) Sample drugs diluted with log dose were added into the cells, and it were cultured at 37° C., for 48 hours, in […] incubater, and then viable cell number was measured, Viable cell number was measured with dye exclusion test using trypan blue.

Series [3] relates to L1210 (mouse leukemia cell). The experiment in a line: In vitro antitumor effects against animal leukemia cells (dye exclusion assay), L1210. The note with it: 50% cell growth inhibition, 37° C., trypan blue; for IC50: Mus musculus, L1210, 48 h, read-out: ED50 (the source's name); for ED50: 48 hours, hydrochloride, 2880 min. The series is classed as cell-based. As for the experimental part: L1210(mouse leukemia cell)
as §1, §2

For series [4], the system named is mouse leukemia P388 cells. The experiment in a line: In vivo antitumor effects against mouse leukemia P388 cells. The settings on record: for T/C (%) etc.: days 1, 5, 9, median survival time; for antitumor effect in P388 mice: in words. On the procedure: 1) Leukemia P388 cells being transfer-cultured succesively in DBA/2 mouse, were grafted i.p. into each mouse of a group comprising 8 mice of 6 week old BDFI mouse as the dose of 1×10^6 cells/0.1 ml.
2) Sample drugs were dissolved in PBS or suspended in 0.5% Tween 80, and then injected into abdominal cavity of mouse at each prescribed concentration on days 1, 5, 9, respectively.
3) With observation every day, survival times of tested mice were measured. Antitumor activities was determined in such a manner that the increasing ratio(T/C %) of average survival days of drug-treated groups compared with the control group was calculated using the mean survival times of each tested groups.
* Experimental Conditions for Mouse P388
(§3) Animal: BDFI mouse (8 mice/group)
Inoculum size: 10^6 cells/mouse
(§4) Treatment time: days 1, 5, 9
(§5) Parameter: median survival time

The test system of a further series is ICR mice. The experiment in a line: Acute toxicity test (LD50), Litchfield-Wilcoxon method. Further details: unit not given here. The note with it: male ICR mice, 14 days. The series is classed as in vivo, mouse.
The test system of series [5] is L1210 and P388 mouse cancer cells. As to the kind of experiment: In vitro antitumor activity against L1210 and P388 compared with mitomycin C (dye exclusion assay). The settings on record: in words. The series is classed as cell-based. As for the experimental part: as §1
1) L-1210 and P388 cells that were cultured in RPMI 1640 media containing 10% FBS were regulated as the cell concentration of 1×10^6 cells/ml.
as §2
3) The concentration of sample compounds of 50% cell growth inhibition compared with standard group was determined as IC50.

The next series concerns B16 Melanoma. As to the kind of experiment: In vivo antitumor activities against mouse solid tumor, B16 melanoma. The note with it: for T/C (%) Etc.: days 1, 5, 9, median survival time; for antitumor activities in B16 mouse melanoma: in words. On the procedure:
BDF1 mouse was used in experiment while being successively transfer cultured in C57BL/6 mice by s.c.
1) After 1 g of tumor was added into cold balanced salt solution up to be 10 ml, it was homogenized (10:1,brei).
2) 0.5 ml Brei of the above 1) were grafted into each BDFI mouse by i.p.
3) Median survival time was measured, and the activity was determined in such a manner that if T/C was over 125%, it presented moderate activity, while if it is over 150%, it had significant activity.
* Experimental Conditions for Mouse B16 Melanoma.
as §3
Inoculum size: 10^5 cells/mouse
as §4, §5

Structures are written as SMILES. Converted amounts (≈) assume the structure as drawn. Counter-ions that a name gives are not always drawn.

`CCc1cc(NC(=O)N2CCN(c3ccccc3OC)CC2)c(OC)nc1C` [Example 1, 1-[(5-ethyl-2-methoxy-6-methylpyridin-3-yl)aminocarbonyl]-4-(2-methoxyphenyl)piperazine]: in series [1], the “antitumor activities compared with cisplatin” value was “superior antitumor activities to those of cisplatin”. The ED50 in series [2] was 0.6 µg/mL (≈ 1.56 µM). Further, the IC50 in series [3] was 1.6 µg/mL (≈ 4.16 µM). Also, the results for the “T/C (%) etc.” value in series [4] (50 mg/kg i.p.) and in series [4] (100 mg/kg i.p.) were 109.1% and 134.6%, respectively. In addition, the “antitumor effect in P388 mice” value in series [4] is “significant antitumor effect”.

Consider `COc1ccccc1N1CCN(C(=O)Nc2cc(C)c(C)nc2OC)CC1` [Example 108], for which the LD50 in the series on ICR mice (i.p.) was > 2,000; in the series on ICR mice (p.o.), > 3,110. In addition, the “antitumor activities compared with mitomycin C” value in series [5] is given as “same or more excellent antitumor activities”. Moreover, the “antitumor activities compared with cisplatin” value in series [1] was “superior antitumor activities to those of cisplatin”. Further, the IC50 in series [2] came out at 0.9 µg/mL (≈ 2.43 µM); in series [3] it was 0.8 µg/mL (≈ 2.16 µM).

Consider `COc1cc(OC)cc(N2CCN(C(=O)Nc3cc(C)c(C)nc3OC)CC2)c1` [Example 118, 1-[(5,6-dimethyl-2-methoxypyridin-3-yl)aminocarbonyl]-4-(3,5-dimethoxyphenyl)piperazine], for which the LD50 with ICR mice (i.p.) was 182.8; in the series with ICR mice (p.o.), 571.8. For the same compound, the “antitumor activities compared with mitomycin C” value in series [5] is “same or more excellent antitumor activities”. For the same compound, the “antitumor activities compared with cisplatin” value in series [1] is recorded as “superior antitumor activities to those of cisplatin”. The IC50 in series [2] and in series [3] was 0.06 µg/mL (≈ 0.15 µM) throughout.

In the case of `CCc1cc(NC(=O)N2CCN(c3cccc(Cl)c3)CC2)c(OC)nc1C` [Example 16, 1-[(5-ethyl-2-methoxy-6-methylpyridin-3-yl)aminocarbonyl]-4-(3-chlorophenyl)piperazine], the IC50 in series [2] was determined as 1.6 µg/mL (≈ 4.11 µM); in series [3], 1.8 µg/mL (≈ 4.63 µM). For the same compound, the figures for the “T/C (%) Etc.” value in the series on B16 Melanoma (Dose 50 (unit not given) i.p.), with B16 Melanoma (Dose 100 (unit not given) i.p.) and in the series with B16 Melanoma (Dose 200 (unit not given) i.p.) were 115.2%, 127.3% and 118.2%, respectively. Besides, in the series with B16 Melanoma, the “antitumor activities in B16 mouse melanoma” value is reported as “significant antitumor activities”. The “T/C (%) etc.” value was 113.6% in series [4] (50 mg/kg i.p.) and 131.8% in series [4] (100 mg/kg i.p.). The “antitumor effect in P388 mice” value in series [4] was “significant antitumor effect”.

For the compound `CCc1cc(NC(=O)N2CCN(c3cc(OC)cc(OC)c3)CC2)c(OC)nc1C` [Example 6, 1-[(5-ethyl-2-methoxy-6-methylpyridin-3-yl)aminocarbonyl]-4-(3,5-dimethoxyphenyl)piperazine], the figures for the LD50 in the series on ICR mice (i.p.) and in the series with ICR mice (p.o.) were 248.5 and above 622, respectively. In series [5], the “antitumor activities compared with mitomycin C” value is on record as “same or more excellent antitumor activities”. Besides, the “antitumor activities compared with cisplatin” value in series [1] was “superior antitumor activities to those of cisplatin”. Further, the IC50 in series [2] is 0.3 µg/mL (≈ 0.724 µM); in series [3] it was 0.6 µg/mL (≈ 1.45 µM). In addition, the “T/C (%) Etc.” value in the series with B16 Melanoma (Dose 50 (unit not given) i.p.) is listed as 127.3%; in the series on B16 Melanoma (Dose 100 (unit not given) i.p.), 124.2%; with B16 Melanoma (Dose 200 (unit not given) i.p.), 139.4%. Besides, the “antitumor activities in B16 mouse melanoma” value in the series with B16 Melanoma is recorded as “significant antitumor activities”. Also, the “T/C (%) etc.” value came to 133.3% in series [4] (50 mg/kg i.p.) and 183.3% in series [4] (100 mg/kg i.p.). The “antitumor effect in P388 mice” value in series [4] is given as “significant antitumor effect”.

As for `CCc1cc(NC(=O)N2CCN(c3ccccc3OC)CC2)c(OC)nc1C` [Example 148, 1-[(5-ethyl-2-methoxy-6-methylpyridin-3-yl)aminocarbonyl]-4-[(2-methoxyphenyl)piperazine-2-yl]piperazine salt of hydrochloride], the LD50 in the series with ICR mice (i.p.) came out at 425.3. Further, the “antitumor activities compared with mitomycin C” value in series [5] was “same or more excellent antitumor activities”. Further, the ED50 turned out to be 1.3 µg/mL in series [2] (hydrochloride) and 1.5 µg/mL in series [3].

For `CCc1cc(NC(=O)N2CCN(c3cc(Cl)ccc3OC)CC2)c(OC)nc1C` [Example 49, 1-[(5-ethyl-2-methoxy-6-methylpyridin-3-yl)aminocarbonyl]-4-(5-chloro-2-methioxyphenyl)piperazine], in series [5], the “antitumor activities compared with mitomycin C” value is “same or more excellent antitumor activities”. Besides, the “antitumor activities compared with cisplatin” value in series [1] is listed as “superior antitumor activities to those of cisplatin”. Also, the IC50 came out at 0.6 µg/mL (≈ 1.43 µM) in series [2] and 1.3 µg/mL (≈ 3.1 µM) in series [3].

Take `CCc1cc(NC(=O)N2CCN(c3cc(C)cc(C)c3)CC2)c(OC)nc1C` [Example 29, 1-[(5-ethyl-2-methoxy-6-methylpyrdin-3-yl)aminocarbonyl]-4-(3,5-dimethylphenyl)piperazine]: the “antitumor activities compared with mitomycin C” value in series [5] is “same or more excellent antitumor activities”. Further, the “antitumor activities compared with cisplatin” value in series [1] was “superior antitumor activities to those of cisplatin”. In addition, the IC50 in series [2] was found to be 0.5 µg/mL (≈ 1.31 µM); in series [3], 0.4 µg/mL (≈ 1.05 µM). Moreover, the figures for the “T/C (%) etc.” value in series [4] (50 mg/kg i.p.) and in series [4] (100 mg/kg i.p.) were 136.4% and 190.9%, respectively. Besides, the “antitumor effect in P388 mice” value in series [4] is reported as “significant antitumor effect”.

In the case of `COc1nc(C)c(C)cc1NC(=O)N1CCN(c2cc(C)cc(C)c2)CC1` [Example 120, 1-[(5,6-dimethyl-2-methoxypyridin-3-yl)aminocarbonyl]-4-(3,5-xylyl)piperazine], the “antitumor activities compared with mitomycin C” value in series [5] is recorded as “same or more excellent antitumor activities”. Also, the “antitumor activities compared with cisplatin” value in series [1] was “superior antitumor activities to those of cisplatin”. Further, the IC50 in series [2] was found to be 0.1 µg/mL (≈ 0.271 µM); in series [3], 0.3 µg/mL (≈ 0.814 µM).

In the series with ICR mice (i.p.), `CCc1cc(NC(=O)N2CCN(c3cccc(Cl)c3)CC2)c(OC)nc1C` [Example 149, 1-[(5-ethyl-2-methoxy-6-methylpyridin-3-yl)aminocarbonyl]-4-(3-chlorophenyl)piperazine salt of hydrochloride] showed an LD50 of 410.5. The “antitumor activities compared with mitomycin C” value in series [5] was “same or more excellent antitumor activities”. The “antitumor activities compared with cisplatin” value in series [1] was “superior antitumor activities to those of cisplatin”. In addition, the ED50 in series [3] was 0.9 µg/mL.

In the case of `COc1ccccc1N1CCN(C(=S)Nc2cc(C)c(C)nc2OC)CC1` [Example 128], the “antitumor activities compared with mitomycin C” value in series [5] is “same or more excellent antitumor activities”. Moreover, the “antitumor activities compared with cisplatin” value in series [1] is given as “superior antitumor activities to those of cisplatin”. In addition, the IC50 in series [2] is 0.2 µg/mL (≈ 0.517 µM); in series [3] it was 0.5 µg/mL (≈ 1.29 µM).

The values above are taken from patent US5780472A, “Piperazine derivatives and methods for the preparation thereof and compositions containing the same” (Samjin Pharmaceuticazl Co., Ltd., priority 1995, dated 1998).
